Experimental data taken from patent publication US20230285481A1, “TREATMENT OF CANCER HARBORING MUTATIONS IN THE TP53 GENE AND/OR POST-TRANSLATIONAL MODIFICATIONS IN THE P53 PROTEIN WITH PARVOVIRUSES” (UNIVERSIDAD AUTÓNOMA DE MADRID, priority 2018, published 2023).

Tests used:
Assay type in all cases: cell-based, human
[1] = system: U87-MG glioblastoma cells; test: MVM infection markers (NS1, Pp53-S15, vDNA) by IF-confocal, Southern and western blot in U87-MG
Procedure: Immunofluorescence analyses were performed on neurospheres of hGSCs (human glioblastoma stem cells) and established adherent cell lines as follows: • Neurosphere staining. The cell spheres were fixed for 30 minutes with paraformaldehyde (PFA) 4%, then permeabilized for 10 minutes at room temperature with 0.1% Triton X-100 (Merck) in PBS, and blocked by incubating 20 minutes with 0.1% Triton X-100 and 10% fetal bovine serum (Sigma) in PBS. Neurospheres were incubated in the same buffer with the primary antibodies indicated in the figures for 1 h at 37° C., and finished by four five-minute PBS washes. Then neurospheres were incubated with the secondary antibodies at appropriate concentrations in the same buffer and conditions, and finally stained with DAPI for half an hour and mounted embedding at 37° C. in 0.8% agarose-LGT prepared in PBS. Embedded neurospheres were applied as 200 microliters drops on pre-cooled large (2×3 cm) coverslips and stored at 4° C. in the dark until confocal analysis. • Adherent cells. The cell lines were seeded on coverslips, treated as indicated in the figures and fixed for 10 minutes with 4% paraformaldehyde. Staining with antibodies was carried out essentially as described above for the neurospheres. Cells were mounted with Fluoromount G (Southern Biotech). Preparations were kept at least 16 h at room temperature in the dark before observation under a microscope. • Analysis of virus replication by FISH. This method was used to determine the degree of replication of the parvovirus MVM genome. The probe used was a mixture of three DNA oligonucleotides labeled at the 3′ terminal end with the Cy5 fluorophore, and complementary to different sequences of the MVM genome. […] The images were processed with Adobe Photoshop CS5 programs (Adobe Systems Incorporated) and ImageJ/FIJI (http://rsb.info.nih.gov/ij/) taking the same samples as a zero-signal reference without antibodies (auto-fluorescence control), or only with secondary antibodies. […]

[2] = system: U373-MG glioblastoma cells; test: Clonogenic analysis of cell viability (colony formation) in U373-MG; details: single agent: CisPt 1-hour treatment, or MVMp singly inoculated at two MOI
Procedure: Consequently, the CisPt dose effect on different MVMp life cycle parameters, and on p53 phosphorylation and functional signaling in U373-MG cells, was analyzed. For this, the U373-MG cells treated with Cis-Platinum doses (10-120 microM) for 1 hour at 37° C. were inoculated with MVMp to allow adsorption, and then of the infection was allowed to progress for 24 hours. Cells were sampled and processed for virus macromolecular markers and Pp53-S15 determinations.
We finally analyzed whether these MVM/CisPt cooperative effects impact cancer cells viability, and therefore whether they imply a therapeutic significance.

[3] = system: U373-MG glioblastoma cells; test: MVM infection markers (NS1, Pp53-S15, vDNA) by cytometry, IF-confocal and western blot in U373-MG
Text: In all the experiments, a minimum of 30,000 events per sample were acquired in a FACSCantoII cytometer (BD Biosciences), which were pre-selected by a region based on their size and complexity (FSC and SSC parameters, respectively) in order to exclude cellular debris and other contaminating particles. The CellQuest software (BD Biosciences) was used to acquire the events and the FlowJo software (Tree Star) was used to analyze the data. The cell cycle analysis was in accordance to [Gil-Ranedo, J., Hernando, E., Riolobos, L., Dominguez, C., Kann, M, and José M Almendral. 2015. The mammalian cell cycle regulates nuclear parvovirus capsid assembly. PlosPathogens, 11; 11 (6): e1004920]. For staining, cells were permeabilized with PBS+0.1% triton X-100 for 10 minutes at room temperature, then blocked with the same buffer supplemented with 1% FCS for 20 minutes. Cells were re-suspended in PBS (pH 7.2)+0.5% BSA and the primary antibodies indicated in the figures were added followed by 1 h stirring at 37° C. Cells were washed in PBS and the secondary antibodies were added and incubated similarly. Two further washes in PBS were made before analyzing the samples in the flow cytometer.
Immunofluorescence analyses were performed on neurospheres of hGSCs (human glioblastoma stem cells) and established adherent cell lines as follows: • Neurosphere staining. The cell spheres were fixed for 30 minutes with paraformaldehyde (PFA) 4%, then permeabilized for 10 minutes at room temperature with 0.1% Triton X-100 (Merck) in PBS, and blocked by incubating 20 minutes with 0.1% Triton X-100 and 10% fetal bovine serum (Sigma) in PBS. Neurospheres were incubated in the same buffer with the primary antibodies indicated in the figures for 1 h at 37° C., and finished by four five-minute PBS washes. Then neurospheres were incubated with the secondary antibodies at appropriate concentrations in the same buffer and conditions, and finally stained with DAPI for half an hour and mounted embedding at 37° C. in 0.8% agarose-LGT prepared in PBS. Embedded neurospheres were applied as 200 microliters drops on pre-cooled large (2×3 cm) coverslips and stored at 4° C. in the dark until confocal analysis. • Adherent cells. The cell lines were seeded on coverslips, treated as indicated in the figures and fixed for 10 minutes with 4% paraformaldehyde. Staining with antibodies was carried out essentially as described above for the neurospheres. Cells were mounted with Fluoromount G (Southern Biotech). Preparations were kept at least 16 h at room temperature in the dark before observation under a microscope. • Analysis of virus replication by FISH. This method was used to determine the degree of replication of the parvovirus MVM genome. The probe used was a mixture of three DNA oligonucleotides labeled at the 3′ terminal end with the Cy5 fluorophore, and complementary to different sequences of the MVM genome. Cells adhered and fixed in 4% paraformaldehyde were permeabilized for 10 minutes with 0.2% Triton X-100 (Merck) in PBS and equilibrated for 5 minutes at room temperature in 2×SSC (0.3 M NaCl; 30 mM Na2C6H5O7, pH 7) supplemented with 15% formamide. Hybridization was with 500 ng/ml of each oligonucleotide in FISH buffer (5×SSC, 0.5% SDS, 10% dextran sulfate, 50% formamide) for 2.5 hours at 37° C. The preparations were washed twice with 2×SSC, 15% formamide for 30 minutes. […]

| Compound | p53 phosphorylation at the Ser15 residue ([1]; uninfected U87-MG cells, IF-confocal) | cell viability (clonogenic assay) [2] | NS1 levels by western blot ([3]; MVMp infected U373-MG, 5 to 20 microM CisPt) | virus genome (vDNA) replication levels ([3]; MVMp infected U373-MG, IF-confocal, CisPt dose effect) | percentage of cells expressing NS1 and level of NS1 expression ([3]; MVMp infected U373MG, flow cytometry, combined treatment with single dose of CD versus simple infection) | Pp53-S15 levels ([3]; U373-MG, IF-confocal, 5-20 microM Cis-Pt, 1 hour, then MVMp 24 hours) | Pp53-S15 induction ([3]; U373MG, flow cytometry, single dose, also in treated non-infected cells) | percentage of NS1+ cells after drug pre-treatment ([1]; U87-MG treated with different Cis-Pt doses prior to MVMp infection) | MVMp genome replication (vDNA) after drug pre-treatment ([1]; U87-MG, Cis-Pt dose effect, MVMp infection) |
| --- | --- | --- | --- | --- | --- | --- | --- | --- | --- |
| O=c1[nH]cc(F)c(=O)[nH]1 [5FU, 5-fluorouracil] | substantially increased |  |  |  |  |  |  |  |  |
| N.N.[Cl][Pt][Cl] [CisPt, Cisplatin] |  | progressively decreased the viability | increasing NS1 levels | benefitted from 10 microM CisPt but not from higher doses | highest increase | significant increase | generalized Pp53-S15 induction in all cells | very significant increase | benefitted from the 10 or 20 microM Cis-Pt treatment, but not from higher doses |
